Test results taken from patent US9067926B2, “Fluoromethyl-5,6-dihydro-4H-[1,3]OXAZINES” (F. Hoffmann-La Roche AG, priority 2012, dated 2015).

Experiments:
hERG = hERG (Homo sapiens, UniProt Q12809); experiment: hERG current measurement (automated patch clamp); assay type: cell-based
Procedure: The hERG current measurement was performed at an automated patch clamp system following the procedure described in R. E. Martin et al. in Bio org.

Aβ40 in brain = experiment: In vivo inhibition of Aβ40 in brain of wild-type mice; conditions: Mus musculus, po; 10 mg/kg p.o., brain Aβ40 after 4 h, female C57Bl/6J mice; read-out: in vivo effect, Percentage of control @ 10 mg/kg p.o
Procedure: In Vivo Experiments. […] The test compound was dissolved in 5% EtOH, 10% Solutol and was applied per os at 10 ml/kg. After 4 h the animals were sacrificed and brain and plasma were collected. The brain was cut into halves and immediately frozen on dry ice. Brain was used for measurement of Aβ40 and plasma was used for determination of compound exposure. […] Brain tissue was homogenized in 2% DEA buffer in a Roche […] (20'', 4000 rpm) and subsequently centrifuged for 1 h at 100'000 g. DEA was reduced to 0.2% in 50 mM NaCl and one half of the DEA lysate was passed over an Oasis Solid Phase extraction plate (Waters; Cat.Nr. 186000679) which had been activated with MeOH and equilibrated in dH2O (1 ml each). After washes in 10% and 30% MeOH (1 ml each) the AP-peptides were eluted in 0.8 ml 2% NH4OH in 90% MeOH. […] Aβ40 was determined by an AlphaLISA assay (Perkin Elmer). In a white 96well half-area microplate (Perkin Elmer Cat.Nr. 6005561), 20 μl of the reconstituted sample were mixed with 5 μl biotinylated BAP-24 (specific for C-terminus of Aβ40 (Brockhaus, M.; Grunberg, J.; Rohrig, S.; Loetscher, H.; Wittenburg, N.; Baumeister, R.; Jacobsen, […]. Caspase-mediated cleavage is not required for the activity of presenilins in amyloidogenesis and NOTCH signaling. […] The mix was incubated for 1 h at RT in the dark. Then 20 μl Streptavin-coated Donor Beads (Perkin Elmer Cat. Nr. 6760002, final dilution 1:125) were added and this final mix was incubated in the dark for another 30 min at r.t. before RFU was measured in an AlphaScreen Reader(Perkin Elmer Envision 2104).

[1] = biological target: T1, recombinant human cathepsin E (Homo sapiens, UniProt P14091); experiment: Cathepsin E fluorescent substrate kinetic assay; assay type: biochemical; conditions: pH 4.5
T1 construct: purchased R&D Systems
T1 sequence (P14091 54-396): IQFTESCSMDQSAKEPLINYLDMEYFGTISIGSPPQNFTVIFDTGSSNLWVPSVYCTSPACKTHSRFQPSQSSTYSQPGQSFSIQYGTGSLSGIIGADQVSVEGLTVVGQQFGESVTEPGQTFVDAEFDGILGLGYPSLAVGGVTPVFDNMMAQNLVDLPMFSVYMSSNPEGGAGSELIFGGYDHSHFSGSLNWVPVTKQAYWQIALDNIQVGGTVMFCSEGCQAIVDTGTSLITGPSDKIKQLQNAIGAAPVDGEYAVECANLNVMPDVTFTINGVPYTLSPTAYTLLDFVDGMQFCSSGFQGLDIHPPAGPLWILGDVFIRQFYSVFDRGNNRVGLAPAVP
Text: Cathepsin D and Cathepsin E Fluorescent Substrate Kinetic Assays
The MR121 fluorescence assays described below are based on the fact that MR121 forms a non-fluorescent ground state complex with tryptophan. In solution this formation occurs at millimolar concentrations of tryptophan. The mechanism can be used to design a generic biochemical assay for proteases. […] In absence of protease activity, the substrates remain intact and the MR121 fluorescence is reduced by the high local Trp-concentration. If the substrates are cleaved by the enzymes the MR121 fluorescence is recovered.
The fluorescent substrate cathepsin D and cathepsin E kinetic assays were performed at room temperature in 384-well microtiter plates (black with clear flat bottom, non binding surface plates from Corning) in a final volume of 51 μl. The test compounds were serially diluted in DMSO (15 concentrations, 1/3 dilution steps) and 1 μl of diluted compounds were mixed for 10 min with 40 μl of cathepsin D (from human liver, Calbiochem) diluted in assay buffer (100 mM sodium acetate, 0.05% BSA, pH 5.5; final concentration: 200 nM) or with 40 μl of recombinant human cathepsin E (R&D Systems) diluted in assay buffer (100 mM sodium acetate, 0.05% BSA, pH 4.5; final concentration: 0.01 nM). […] The slope in the linear range of the kinetic was calculated and the IC50 of the test compounds were determined using a four parameter equation for curve fitting.

CYP3A4 = biological target: T2, CYP3A4 (Homo sapiens, UniProt P08684); experiment: CYP inhibition assay, CYP3A4; assay type: in vitro ADME; conditions: pooled human liver microsomes, midazolam substrate; read-out: CYP IC50 3A4
T2 construct: 0.2 mg/ml pooled human liver microsomes; from tissue; host or cells: pooled human liver microsomes
Procedure: (§1) Inhibition of cytochromes P450 (CYPs) 2C9, 2D6 and 3A4 was assessed using human liver microsomes and CYP-selective substrate metabolism reactions. […] Quenched incubates were stored at −20° C. for at least 1 hour before centrifugation (20,000×g, 20 minutes). Supernatants were removed and diluted 1:1 with water prior to analysis using a RapidFire sample injector system and API4000 mass spectrometer. Peak areas for substrate, metabolite and stable-labelled metabolite standard were determined using MS/MS. The peak area ratios between the metabolite generated by the enzymatic reaction and the internal standard were used in subsequent calculations. The percentage of (DMSO) control activity was calculated for each incubate and IC50 values estimated by non-linear regression. Sulfaphenazole, quinidine or ketoconazole were tested in each CYP2C9, CYP2D6 or CYP3A4 inhibition experiment, respectively, to ensure assay sensitivity and reproducibility.

CYP2C9 = biological target: T3, CYP2C9 (Homo sapiens, UniProt P11712); experiment: CYP inhibition assay, CYP2C9; assay type: in vitro ADME; conditions: pooled human liver microsomes, diclofenac substrate; read-out: CYP IC50 2C9
T3 construct: 0.2 mg/ml pooled human liver microsomes; from tissue; host or cells: pooled human liver microsomes
Procedure: as §1

T3 sequence (P11712 whole entry): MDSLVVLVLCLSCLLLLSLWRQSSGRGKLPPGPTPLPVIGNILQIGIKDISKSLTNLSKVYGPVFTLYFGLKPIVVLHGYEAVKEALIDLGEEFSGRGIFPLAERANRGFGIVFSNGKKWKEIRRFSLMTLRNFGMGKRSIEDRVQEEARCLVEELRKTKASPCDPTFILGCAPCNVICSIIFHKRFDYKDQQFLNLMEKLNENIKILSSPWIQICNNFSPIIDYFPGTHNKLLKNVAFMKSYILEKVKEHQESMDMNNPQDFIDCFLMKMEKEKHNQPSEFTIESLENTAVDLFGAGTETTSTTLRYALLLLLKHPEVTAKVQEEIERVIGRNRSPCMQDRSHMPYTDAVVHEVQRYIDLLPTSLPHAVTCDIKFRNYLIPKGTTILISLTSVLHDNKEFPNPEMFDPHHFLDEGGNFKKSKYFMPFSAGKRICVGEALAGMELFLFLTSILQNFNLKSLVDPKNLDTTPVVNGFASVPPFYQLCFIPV
Sequence of hERG (Q12809 whole entry): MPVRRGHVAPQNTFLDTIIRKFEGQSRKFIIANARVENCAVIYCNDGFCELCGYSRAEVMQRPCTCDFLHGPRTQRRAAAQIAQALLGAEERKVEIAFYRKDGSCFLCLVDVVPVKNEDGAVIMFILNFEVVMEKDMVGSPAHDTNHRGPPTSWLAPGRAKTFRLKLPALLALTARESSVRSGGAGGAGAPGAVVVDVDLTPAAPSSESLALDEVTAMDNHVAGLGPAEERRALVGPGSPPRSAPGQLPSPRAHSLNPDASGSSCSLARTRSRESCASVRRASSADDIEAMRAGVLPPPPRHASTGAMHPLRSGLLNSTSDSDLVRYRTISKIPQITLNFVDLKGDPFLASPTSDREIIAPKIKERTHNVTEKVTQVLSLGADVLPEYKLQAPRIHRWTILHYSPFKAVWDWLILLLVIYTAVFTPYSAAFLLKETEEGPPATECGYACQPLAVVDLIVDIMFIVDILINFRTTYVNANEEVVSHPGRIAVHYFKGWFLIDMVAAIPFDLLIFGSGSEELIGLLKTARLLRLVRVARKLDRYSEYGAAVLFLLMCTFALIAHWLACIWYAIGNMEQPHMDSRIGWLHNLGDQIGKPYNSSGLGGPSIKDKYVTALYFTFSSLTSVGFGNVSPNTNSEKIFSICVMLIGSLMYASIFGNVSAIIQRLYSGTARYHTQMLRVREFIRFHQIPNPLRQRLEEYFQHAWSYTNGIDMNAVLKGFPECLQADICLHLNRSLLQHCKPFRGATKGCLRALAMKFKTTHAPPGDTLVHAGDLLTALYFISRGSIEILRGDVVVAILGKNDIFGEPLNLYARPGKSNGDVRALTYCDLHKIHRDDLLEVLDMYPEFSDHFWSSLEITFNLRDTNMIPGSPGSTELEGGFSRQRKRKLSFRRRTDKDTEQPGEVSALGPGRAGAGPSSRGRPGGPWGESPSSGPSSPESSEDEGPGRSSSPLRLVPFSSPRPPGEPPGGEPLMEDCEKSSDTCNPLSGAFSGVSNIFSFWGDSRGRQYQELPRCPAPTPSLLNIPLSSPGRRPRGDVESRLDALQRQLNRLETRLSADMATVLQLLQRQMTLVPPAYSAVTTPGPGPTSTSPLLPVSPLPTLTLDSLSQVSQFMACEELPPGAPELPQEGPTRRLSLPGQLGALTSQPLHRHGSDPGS
T2 sequence (P08684 whole entry): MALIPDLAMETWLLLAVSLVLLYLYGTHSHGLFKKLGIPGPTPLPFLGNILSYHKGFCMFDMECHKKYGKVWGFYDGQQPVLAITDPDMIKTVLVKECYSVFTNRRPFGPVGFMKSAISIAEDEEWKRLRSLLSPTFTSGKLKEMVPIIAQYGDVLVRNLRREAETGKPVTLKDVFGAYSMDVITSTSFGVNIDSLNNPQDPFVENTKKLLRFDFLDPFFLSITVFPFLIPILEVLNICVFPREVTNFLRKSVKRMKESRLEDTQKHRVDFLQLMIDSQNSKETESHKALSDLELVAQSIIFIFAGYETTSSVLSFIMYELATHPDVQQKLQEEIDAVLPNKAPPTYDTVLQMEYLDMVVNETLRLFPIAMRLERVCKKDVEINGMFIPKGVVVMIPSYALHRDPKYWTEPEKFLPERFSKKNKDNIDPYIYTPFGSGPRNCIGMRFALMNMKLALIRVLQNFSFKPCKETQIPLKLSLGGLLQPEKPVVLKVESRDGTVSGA

| IC50 [1] | IC50 (CYP3A4) | IC50 (CYP2C9) | SMILES | hERG Inhibition @ 10 μM (hERG) | response vs control in vivo at 10 mg/kg (Aβ40 in brain) |
| --- | --- | --- | --- | --- | --- |
| > 200 µM | > 50 µM | > 50 µM | C[C@@]1(c2cc(NC(=O)c3ccc(Cl)cn3)ccc2F)C[C@@H](C(F)(F)F)OC(N)=N1 [Example 2, N-(3-((4S,6S)-2-amino-4-methyl-6-(trifluoromethyl)-5,6-dihydro-4H-1,3-oxazin-4-yl)-4-fluorophenyl)-5-chloropicolinamide] | 84 | 93% |
| > 200 µM | > 50 µM | > 50 µM | C[C@@]1(c2cc(NC(=O)c3ccc(OCF)cn3)ccc2F)C[C@@H](C(F)(F)F)OC(N)=N1 [Example 11, N-(3-((4S,6S)-2-Amino-4-methyl-6-(trifluoromethyl)-5,6-dihydro-4H-1,3-oxazin-4-yl)-4-fluorophenyl)-5-(fluoromethoxy)picolinamide] | 26 | 87% |
| > 200 µM | > 50 µM | 33 µM | CC#CCOc1cnc(C(=O)Nc2ccc(F)c([C@]3(C)C[C@@H](C(F)(F)F)OC(N)=N3)c2)cn1 [Example 22, N-(3-((4S,6S)-2-Amino-4-methyl-6-(trifluoromethyl)-5,6-dihydro-4H-1,3-oxazin-4-yl)-4-fluorophenyl)-5-(but-2-ynyloxy)pyrazine-2-carboxamide] |  | 83% |
| > 200 µM | > 50 µM | 33 µM | NC1=N[C@](CF)(c2cc(NC(=O)c3ccc(OCF)cn3)ccc2F)C[C@@H](C(F)(F)F)O1 [Example 35, N-(3-((4S,6S)-2-Amino-4-(fluoromethyl)-6-(trifluoromethyl)-5,6-dihydro-4H-1,3-oxazin-4-yl)-4-fluorophenyl)-5-(fluoromethoxy)picolinamide] | 26 | 74% |
